# Laboratory results taken from US20100292335A1, “USE OF ORGANIC COMPOUNDS” (priority 2007, published 2010).
# Tested on: bradykinin peptides BK-(1-7), BK-(1-9)
# Test: Bradykinin peptide levels in blood and tissues of non-diabetic and streptozotocin-diabetic (mRen-2)27 rats after 16 weeks aliskiren
# Assay type: in vivo, transgenic (mRen-2)27 rats
# Conditions: for Effect of aliskiren on BK-(1-7) level / Effect of aliskiren on BK-(1-9) level / Effect of aliskiren on BK-(1-7)/(1-9) ratio: 10 mg/kg/day 16 weeks, 10 mg/kg/day; for Heart BK-(1-7), Mean ± SEM / Heart BK-(1-7)/(1-9) ratio, Mean ± SEM / Heart BK-(1-9), Mean ± SEM: aliskiren 10 mg/kg/day 16 weeks
# Description: As an example, diabetes is induced in 6 week old female heterozygous transgenic (mRen-2)27 rats by administration of 55 mg/kg streptozotocin diluted in […], pH 4.5 by tail vein injection. Non-diabetic rats are injected with citrate buffer alone [Campbell D J, Kelly D J, Wilkinson-Berka J L, Cooper M E, Skinner S L. Increased bradykinin and “normal” angiotensin peptide levels in diabetic Sprague-Dawley and transgenic (mRen-2)27 rats. Kidney Int 1999; 56:211-221.1. Diabetic and non-diabetic rats are randomized to receive either no drug or aliskiren (10 mg/kg/day by osmotic minipump) from 6-7 weeks of age for a duration of 16 weeks. The minipumps are changed every 2 weeks and the amount of aliskiren in the minipumps is adjusted according to the body weight of the rats. Diabetic rats are injected subcutaneously with 2-4 units insulin (Ultratard, Novo Nordisk, Denmark).every second day (3 times a week). If rats have continuously elevated blood glucose levels (>33.3 mmol/L) over a couple of weeks, they are injected with 3 units every day. When glucose levels decrease to 33.3 mmol/L they are administered 2-4 units insulin every second day. After 16 weeks drug treatment, rats are anesthetized with ketamine (75 mg/kg) and xylazine (10 mg/kg) in combination, and blood and tissue is collected for peptide assay. Peptides are measured as previously described [Lawrence A C, Evin G, Kladis A, Campbell D J. An alternative strategy for the radioimmunoassay of angiotensin peptides using amino-terminal-directed antisera: measurement of eight angiotensin peptides in human plasma. J Hypertens 1990; 8:715-724; Campbell D J, Lawrence A C, Towrie A, Kladis A, Valentijn A J. Differential regulation of angiotensin peptide levels in plasma and kidney of the rat. Hypertension 1991; 18:763-773; Campbell D J, Kladis A, Duncan A-M. Nephrectomy, converting enzyme inhibition and angiotensin peptides. Hypertension 1993; 22:513-522; Campbell D J, Kladis A, Duncan A-M. Bradykinin peptides in kidney, blood, and other tissues of the rat. Hypertension 1993; 21:155-165; Campbell D J, Kladis A, Duncan A-M. Effects of converting enzyme inhibitors on angiotensin and bradykinin peptides. Hypertension 1994; 23:439-449; Campbell D J, Rong P, Kladis A, Rees B, Skinner S L. Angiotensin and bradykinin peptides in the TGR(mRen-2)27 rat. Hypertension 1995; 25:1014-1020]. Only the left kidney is collected for peptide assay. The heart refers to the cardiac ventricles (both right and left ventricle). The Ang I levels in heart are below the limit of detection of the assay.
# There are 4 groups of rats: • 1. Non-diabetic control. • 2. Non-diabetic administered aliskiren 10 mg/kg/day. • 3. Diabetic control. • 4. Diabetic administered aliskiren 10 mg/kg/day.
# [1] = Heart, control rats, listed as Aliskiren
# [2] = Heart, diabetic rats, listed as Aliskiren
structure (smiles),measurement,setting,value
"COCCCOc1cc(C[C@@H](C[C@H](N)[C@@H](O)C[C@H](C(=O)NCC(C)(C)C(N)=O)C(C)C)C(C)C)ccc1OC [aliskiren, 2(S),4(S),5(S),7(S)-N-(3-amino-2,2-dimethyl-3-oxopropyl)-2,7-di(1-methylethyl)-4-hydroxy-5-amino-8-[4-methoxy-3-(3-methoxy-propoxy)phenyl]-octanamide]",Effect of aliskiren on BK-(1-7) level,"Blood, control rats",does not affect
same,Effect of aliskiren on BK-(1-9) level,"Blood, control rats",does not affect
same,Effect of aliskiren on BK-(1-7) level,"Blood, diabetic rats",does not affect
same,Effect of aliskiren on BK-(1-7)/(1-9) ratio,"Blood, diabetic rats",increase
same,Effect of aliskiren on BK-(1-9) level,"Blood, diabetic rats",does not affect
same,Effect of aliskiren on BK-(1-7) level,"Brain, control rats",does not affect
same,Effect of aliskiren on BK-(1-9) level,"Brain, control rats",does not affect
same,Effect of aliskiren on BK-(1-7) level,"Brain, diabetic rats",does not affect
same,Effect of aliskiren on BK-(1-9) level,"Brain, diabetic rats",does not affect
same,Effect of aliskiren on BK-(1-7) level,"Heart, control rats",increased
same,Effect of aliskiren on BK-(1-7)/(1-9) ratio,"Heart, control rats",did not affect
same,Effect of aliskiren on BK-(1-9) level,"Heart, control rats",increased
same,Effect of aliskiren on BK-(1-7) level,[1],increase
same,Effect of aliskiren on BK-(1-7)/(1-9) ratio,[1],no change
same,Effect of aliskiren on BK-(1-9) level,[1],increase
same,"Heart BK-(1-7), Mean ± SEM","Heart, control rats",19.2 ± 2.5 fmol/g
same,"Heart BK-(1-7)/(1-9) ratio, Mean ± SEM","Heart, control rats",1.88 ± 0.18 mol/mol
same,"Heart BK-(1-9), Mean ± SEM","Heart, control rats",10.6 ± 1.2 fmol/g
same,Effect of aliskiren on BK-(1-7) level,"Heart, diabetic rats",increased
same,Effect of aliskiren on BK-(1-7)/(1-9) ratio,"Heart, diabetic rats",did not affect
same,Effect of aliskiren on BK-(1-9) level,"Heart, diabetic rats",increased
same,Effect of aliskiren on BK-(1-7) level,[2],increase
same,Effect of aliskiren on BK-(1-7)/(1-9) ratio,[2],no change
same,Effect of aliskiren on BK-(1-9) level,[2],increase
same,"Heart BK-(1-7), Mean ± SEM","Heart, diabetic rats",13.9 ± 1.5 fmol/g
same,"Heart BK-(1-7)/(1-9) ratio, Mean ± SEM","Heart, diabetic rats",2.47 ± 0.37 mol/mol
same,"Heart BK-(1-9), Mean ± SEM","Heart, diabetic rats",6.4 ± 0.7 fmol/g
same,Effect of aliskiren on BK-(1-7) level,"Kidney, control rats",does not affect
same,Effect of aliskiren on BK-(1-9) level,"Kidney, control rats",does not affect
same,Effect of aliskiren on BK-(1-7) level,"Kidney, diabetic rats",does not affect
same,Effect of aliskiren on BK-(1-9) level,"Kidney, diabetic rats",does not affect
same,Effect of aliskiren on BK-(1-7) level,"Lung, control rats",does not affect
same,Effect of aliskiren on BK-(1-9) level,"Lung, control rats",does not affect
same,Effect of aliskiren on BK-(1-7) level,"Lung, diabetic rats",does not affect
same,Effect of aliskiren on BK-(1-9) level,"Lung, diabetic rats",does not affect
